EP3212201B1, “NUCLEOSIDE KINASE INHIBITORS” (BCI Pharma, priority 2014, dated 2016)

Columns and labels:
Experiment in all cases: FRET-based coupled-enzyme protein kinase inhibition assay
Format in all cases: biochemical
Conditions in all cases: compound at 10 µM, 1% DMSO
[1] = molecular target: CSNK1G2 (CK1 gamma 2) (Homo sapiens, UniProt P78368)
Description: (§1) A biochemical assay was then performed in order to measure the protein kinase inhibition. It employed a fluorescence-based coupled-enzyme format and was based on the differential sensitivity of phosphorylated and non-phosphorylated peptides to proteolytic cleavage.
(§2) Peptide substrates were labeled with two fluorophores. The two fluorohores used were coumarin (donor) and fluorecein (acceptor), and each of the peptides was bearing one at one end, and one at the other end, which made up fluorescence resonance energy transfer (FRET) pair peptides.
(§3) In a primary reaction, the FRET-peptides were submitted to a phosphorylation reaction, in which one of adenosine triphosphate (ATP)'s phosphate groups was transferred to the peptide in the presence of kinase. When kinase inhibition takes place, the peptide will not be phosphorylated. In a secondary reaction, both the phosphorylated FRET-peptides and the non-phosphorylated FRET-peptides were reacted with a development reagent. It has been observed that non-phosphorylated FRET-peptides were cleaved, whereas the phosphorylted FRET-peptide remained intact.
(§4) Cleavage disrupts FRET between the donor (i.e., coumarin) and acceptor (i.e., fluorescein) fluorophores on the FRET-peptide, whereas uncleaved, phosphorylated FRET-peptides maintain FRET. A ratiometric method, which calculates the Emission Ratio of donor emission to acceptor emission after excitation of the donor fluorophore at 400 nm, is used to quantitate reaction progress, as shown in the equation below. [formula]
(§5) A significant benefit of this ratiometric method for quantitating reaction progress is the elimination of well-to-well variations in FRET-peptide concentration and signal intensities. As a result, the assay yields very high Z'factor values (>0.7) at a low percent phosphorylation. Both cleaved and uncleaved FRET-peptides contribute to the fluorescence signals and therefore to the Emission Ratio. The extent of phosphorylation of the FRET-peptide can be calculated from the Emission Ratio. The Emission Ratio will remain low if the FRET-peptide is phosphorylated (i.e., no kinase inhibition) and will be high if the FRET-peptide is non-phosphorylated (i.e., kinase inhibition).
(§6) The Test Compounds were screened in 1% DMSO. For 10 point titrations, 3-fold serial dilutions were prepared from the starting concentration.
(§7) All Peptide/Kinase Mixtures were diluted to a 2X working concentration in the appropriate Kinase Buffer (50 mM HEPES pH 7.5, 0.01% BRIJ-35, 10 mM MgCl2, 1 mM […]).
(§8) All ATP Solutions were diluted to a 4X working concentration in Kinase Buffer. ATP Km apparent was previously determined using another assay.
(§9) 2.5 µL - 4X Test Compound or 100 nL 100X plus 2.4 µL kinase buffer were mixed together with 2. 5 µL - 2X Peptide/Kinase Mixture and 3. 2.5 µL - 4X ATP Solution.
(§10) The solution was plate-shaked for 30 seconds, then incubated 60 minutes at room temperature for kinase reaction. 5 µL of Development Reagent Solution were then added, followed by a 30-second plate shake and a 60-minute Development Reaction incubation at room temperature. The results were read on a fluorescence plate reader and the data was analyzed.
(§11) The compounds that show the highest Emission Ratio are the ones that also show the highest protein kinase inhibition properties.

[2] = molecular target: T1, CHEK1 (CHK1) (Homo sapiens, UniProt O14757)
T1 sequence (O14757 1-476): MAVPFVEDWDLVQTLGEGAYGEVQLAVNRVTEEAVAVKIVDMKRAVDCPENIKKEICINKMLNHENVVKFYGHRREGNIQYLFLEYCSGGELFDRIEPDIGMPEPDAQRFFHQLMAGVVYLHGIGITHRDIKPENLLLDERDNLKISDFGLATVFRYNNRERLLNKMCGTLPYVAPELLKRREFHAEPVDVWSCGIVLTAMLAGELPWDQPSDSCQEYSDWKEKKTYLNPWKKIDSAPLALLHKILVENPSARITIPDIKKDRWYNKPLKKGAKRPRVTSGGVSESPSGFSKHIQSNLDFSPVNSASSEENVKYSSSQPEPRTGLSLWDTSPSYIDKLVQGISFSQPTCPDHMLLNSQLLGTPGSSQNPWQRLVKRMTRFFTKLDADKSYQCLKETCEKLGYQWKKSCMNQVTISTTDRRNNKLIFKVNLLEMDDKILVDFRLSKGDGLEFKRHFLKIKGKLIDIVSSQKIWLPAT
Description: as §1, §2, §3, §4, §5, §6, §7, §8, §9, §10, §11

[3] = molecular target: GSK3B (GSK3 beta) (Homo sapiens, UniProt P49841)
Chain of GSK3B (GSK3 beta) (P49841 whole entry, species assumed): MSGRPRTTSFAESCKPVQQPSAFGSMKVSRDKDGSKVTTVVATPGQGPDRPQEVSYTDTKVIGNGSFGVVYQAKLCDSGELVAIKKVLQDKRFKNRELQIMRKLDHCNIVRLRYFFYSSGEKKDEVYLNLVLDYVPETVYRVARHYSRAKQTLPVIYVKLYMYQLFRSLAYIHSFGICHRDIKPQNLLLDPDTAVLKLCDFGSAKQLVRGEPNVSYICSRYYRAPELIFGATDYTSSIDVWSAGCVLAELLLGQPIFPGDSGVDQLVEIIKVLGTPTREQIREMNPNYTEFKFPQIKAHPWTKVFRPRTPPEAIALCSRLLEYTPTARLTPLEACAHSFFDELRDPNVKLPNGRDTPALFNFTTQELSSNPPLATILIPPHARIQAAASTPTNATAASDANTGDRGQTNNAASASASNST
Description: as §1, §2, §3, §4, §5, §6, §7, §8, §9, §10, §11

[4] = molecular target: T2, IRAK4 (Homo sapiens, UniProt Q9NWZ3)
T2 sequence (Q9NWZ3 1-460): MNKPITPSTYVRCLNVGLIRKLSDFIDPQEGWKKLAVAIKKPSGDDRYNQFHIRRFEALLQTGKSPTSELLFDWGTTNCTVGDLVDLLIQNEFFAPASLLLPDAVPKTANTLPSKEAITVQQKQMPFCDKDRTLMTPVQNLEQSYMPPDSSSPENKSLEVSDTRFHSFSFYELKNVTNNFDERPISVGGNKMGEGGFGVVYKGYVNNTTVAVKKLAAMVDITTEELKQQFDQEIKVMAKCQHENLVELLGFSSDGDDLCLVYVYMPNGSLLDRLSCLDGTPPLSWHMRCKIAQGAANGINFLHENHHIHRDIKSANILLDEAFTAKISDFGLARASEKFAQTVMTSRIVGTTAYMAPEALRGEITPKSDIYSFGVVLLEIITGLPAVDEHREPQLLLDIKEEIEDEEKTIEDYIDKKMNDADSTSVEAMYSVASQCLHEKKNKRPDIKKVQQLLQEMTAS
Description: as §1, §2, §3, §4, §5, §6, §7, §8, §9, §10, §11

[5] = molecular target: RPS6KA3 (RSK2) (Homo sapiens, UniProt P51812)
Chain of RPS6KA3 (RSK2) (P51812 whole entry, species assumed): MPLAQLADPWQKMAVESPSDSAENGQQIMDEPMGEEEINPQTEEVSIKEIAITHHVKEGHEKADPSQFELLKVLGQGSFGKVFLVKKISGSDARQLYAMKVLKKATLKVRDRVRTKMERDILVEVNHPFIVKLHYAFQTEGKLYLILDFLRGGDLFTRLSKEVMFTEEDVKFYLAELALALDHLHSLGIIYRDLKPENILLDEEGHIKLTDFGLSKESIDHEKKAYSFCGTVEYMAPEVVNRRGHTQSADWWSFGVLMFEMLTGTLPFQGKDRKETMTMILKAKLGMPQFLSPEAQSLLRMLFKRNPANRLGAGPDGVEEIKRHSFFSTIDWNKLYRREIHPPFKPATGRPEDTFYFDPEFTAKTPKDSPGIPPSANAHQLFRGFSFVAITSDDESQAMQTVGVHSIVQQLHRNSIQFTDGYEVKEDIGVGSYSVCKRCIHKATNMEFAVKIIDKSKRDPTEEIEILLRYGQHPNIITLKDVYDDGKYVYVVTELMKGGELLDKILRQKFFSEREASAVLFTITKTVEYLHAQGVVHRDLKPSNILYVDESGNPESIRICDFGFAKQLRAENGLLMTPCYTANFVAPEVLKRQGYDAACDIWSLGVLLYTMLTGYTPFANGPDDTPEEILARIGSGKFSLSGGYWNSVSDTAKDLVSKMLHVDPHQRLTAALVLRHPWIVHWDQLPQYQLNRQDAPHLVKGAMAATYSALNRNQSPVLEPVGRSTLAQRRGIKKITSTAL
Description: as §1, §2, §3, §4, §5, §6, §7, §8, §9, §10, §11

[6] = molecular target: T3, DYRK3 (Homo sapiens, UniProt O43781)
T3 sequence (O43781 1-588): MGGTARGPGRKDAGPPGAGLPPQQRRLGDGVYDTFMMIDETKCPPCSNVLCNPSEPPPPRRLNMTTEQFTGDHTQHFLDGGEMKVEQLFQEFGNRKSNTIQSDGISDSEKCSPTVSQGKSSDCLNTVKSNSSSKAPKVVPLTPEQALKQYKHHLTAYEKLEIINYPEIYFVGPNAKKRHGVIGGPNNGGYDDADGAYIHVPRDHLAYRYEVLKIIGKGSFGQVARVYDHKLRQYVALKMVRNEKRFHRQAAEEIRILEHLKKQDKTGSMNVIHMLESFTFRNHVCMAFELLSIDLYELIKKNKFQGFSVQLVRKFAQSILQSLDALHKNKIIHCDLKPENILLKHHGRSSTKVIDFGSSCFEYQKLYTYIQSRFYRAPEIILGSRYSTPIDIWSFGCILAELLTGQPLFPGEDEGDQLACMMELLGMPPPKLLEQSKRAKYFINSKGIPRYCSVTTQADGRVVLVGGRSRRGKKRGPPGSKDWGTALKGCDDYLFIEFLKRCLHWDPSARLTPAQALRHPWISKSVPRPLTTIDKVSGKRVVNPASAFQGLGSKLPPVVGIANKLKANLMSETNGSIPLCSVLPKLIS
Description: as §1, §2, §3, §4, §5, §6, §7, §8, §9, §10, §11

Chain of CSNK1G2 (CK1 gamma 2) (P78368 whole entry, species assumed): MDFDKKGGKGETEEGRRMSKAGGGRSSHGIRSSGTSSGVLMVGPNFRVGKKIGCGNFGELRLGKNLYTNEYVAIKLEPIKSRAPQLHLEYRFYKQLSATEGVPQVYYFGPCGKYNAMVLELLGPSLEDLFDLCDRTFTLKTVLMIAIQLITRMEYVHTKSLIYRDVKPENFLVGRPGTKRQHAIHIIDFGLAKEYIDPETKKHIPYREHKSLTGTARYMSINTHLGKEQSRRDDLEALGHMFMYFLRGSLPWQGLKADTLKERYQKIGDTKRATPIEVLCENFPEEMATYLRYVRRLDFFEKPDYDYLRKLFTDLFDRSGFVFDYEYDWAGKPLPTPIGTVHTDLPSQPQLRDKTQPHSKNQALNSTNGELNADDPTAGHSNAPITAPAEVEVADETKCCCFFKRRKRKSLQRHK

Row | Compound | inhibition at 10 µM [1] [%] | inhibition at 10 µM [2] [%] | inhibition at 10 µM [3] [%] | inhibition at 10 µM [4] [%] | inhibition at 10 µM [5] [%] | inhibition at 10 µM [6] [%]
1 | Nc1ncnc2c1ncn2[C@@H]1O[C@H](COC(=O)NCCCc2nc3ccccc3[nH]2)[C@@H](O)[C@H]1O [Compound C1] | -2 | -20 | 7 | -2 | 8 | 12
2 | Nc1ncnc2c1ncn2[C@@H]1O[C@H](COC(=O)NCCN2CCCC2=O)[C@@H](O)[C@H]1O [Compound C22] | 2 | -14 | 3 | 1 | 2 | 3
3 | Nc1ncnc2c1ncn2[C@@H]1O[C@H](COC(=O)N2CCC[C@H]2CO)[C@@H](O)[C@H]1O [Compound C9] | -5 | 14 | -6 | -2 | 1 | 11
4 | Nc1ncnc2c1ncn2[C@@H]1O[C@H](COC(=O)N2CCN(CCc3ccccc3)CC2)[C@@H](O)[C@H]1O [Compound C26] | 0 | 20 | 6 | 2 | 0 | 2
5 | Nc1ncnc2c1ncn2[C@@H]1O[C@H](COC(=O)N2CCC(Cc3ccc(F)cc3)C2)[C@@H](O)[C@H]1O (stereo partly drawn) [Compound C66] | 10 | 18 | 1 | -2 | 6 | 7
6 | CC(C)N1CCC(NC(=O)OC[C@H]2O[C@@H](n3cnc4c(N)ncnc43)[C@H](O)[C@@H]2O)CC1 [Compound C19] | 6 | -16 | 6 | -3 | 1 | 9
7 | Nc1ncnc2c1ncn2[C@@H]1O[C@H](COC(=O)N[C@@H]2CCN(Cc3ccccc3)C2)[C@@H](O)[C@H]1O [Compound C10] | 7 | -3 | 8 | 6 | 8 | 8
8 | Nc1ncnc2c1ncn2[C@@H]1O[C@H](COC(=O)N2CCN(Cc3ccccc3)CC2CO)[C@@H](O)[C@H]1O (stereo partly drawn) [Compound C13] | 11 | -8 | 4 | 13 | 3 | 9
9 | CN1CCN(CCNC(=O)OC[C@H]2O[C@@H](n3cnc4c(N)ncnc43)[C@H](O)[C@@H]2O)CC1 [Compound C46] | -4 | 2 | 5 | 7 | 6 | 4
10 | C[C@@H](NC(=O)OC[C@H]1O[C@@H](n2cnc3c(N)ncnc32)[C@H](O)[C@@H]1O)c1ccc(Cl)cc1 [Compound C4] | 7 | -11 | 8 | 3 | 9 | 5
11 | Nc1ncnc2c1ncn2[C@@H]1O[C@H](COC(=O)NC[C@H](O)CO)[C@@H](O)[C@H]1O [Compound C8] | 13 | -8 | 21 | -8 | 19 | 31

Other lines, results leading:

Row | inhibition at 10 µM [1] [%] | inhibition at 10 µM [2] [%] | inhibition at 10 µM [3] [%] | inhibition at 10 µM [4] [%] | inhibition at 10 µM [5] [%] | inhibition at 10 µM [6] [%] | Compound
12 | -1 | -8 | 5 | 0 | 1 | 12 | Nc1ncnc2c1ncn2[C@@H]1O[C@H](COC(=O)N2CCS(=O)(=O)CC2)[C@@H](O)[C@H]1O [Compound C100]
13 | 15 | -8 | -1 | -17 | 4 | 5 | CS(=O)(=O)N1CC2(CCN(C(=O)OC[C@H]3O[C@@H](n4cnc5c(N)ncnc54)[C@H](O)[C@@H]3O)CC2)c2ccccc21 [Compound C98]
14 | 0 | -9 | -5 | -1 | 7 | 7 | CN(C)CCNC(=O)OC[C@H]1O[C@@H](n2cnc3c(N)ncnc32)[C@H](O)[C@@H]1O [Compound C85]
15 | 0 | -11 | 0 | 0 | 2 | 6 | N#CCCN1CCN(C(=O)OC[C@H]2O[C@@H](n3cnc4c(N)ncnc43)[C@H](O)[C@@H]2O)CC1 [Compound C70]
16 | 0 | -20 | -2 | -5 | 0 | 3 | Nc1ncnc2c1ncn2[C@@H]1O[C@H](COC(=O)N2CCN(C(=O)N3CCOCC3)CC2)[C@@H](O)[C@H]1O [Compound C89]
